Measured values taken from patent US10975081B2, “Substituted fused pyrazole compounds and their use as LRRK2 inhibitors” (GlaxoSmithKline Intellectual Property Development Limited, priority 2015, dated 2021).

target: LRRK2 Ser935 phosphorylation in SH-SY5Y cells over-expressing recombinant full length LRRK2 (Homo sapiens (Human), UniProt Q5S007); test: Recombinant cellular LRRK2 AlphaScreen assay; type: cell-based; conditions: 60 minutes, read-out: Recombinant cellular LRRK2 alphaScreen assay (pIC50) (converted)
Sequence (Q5S007 whole entry): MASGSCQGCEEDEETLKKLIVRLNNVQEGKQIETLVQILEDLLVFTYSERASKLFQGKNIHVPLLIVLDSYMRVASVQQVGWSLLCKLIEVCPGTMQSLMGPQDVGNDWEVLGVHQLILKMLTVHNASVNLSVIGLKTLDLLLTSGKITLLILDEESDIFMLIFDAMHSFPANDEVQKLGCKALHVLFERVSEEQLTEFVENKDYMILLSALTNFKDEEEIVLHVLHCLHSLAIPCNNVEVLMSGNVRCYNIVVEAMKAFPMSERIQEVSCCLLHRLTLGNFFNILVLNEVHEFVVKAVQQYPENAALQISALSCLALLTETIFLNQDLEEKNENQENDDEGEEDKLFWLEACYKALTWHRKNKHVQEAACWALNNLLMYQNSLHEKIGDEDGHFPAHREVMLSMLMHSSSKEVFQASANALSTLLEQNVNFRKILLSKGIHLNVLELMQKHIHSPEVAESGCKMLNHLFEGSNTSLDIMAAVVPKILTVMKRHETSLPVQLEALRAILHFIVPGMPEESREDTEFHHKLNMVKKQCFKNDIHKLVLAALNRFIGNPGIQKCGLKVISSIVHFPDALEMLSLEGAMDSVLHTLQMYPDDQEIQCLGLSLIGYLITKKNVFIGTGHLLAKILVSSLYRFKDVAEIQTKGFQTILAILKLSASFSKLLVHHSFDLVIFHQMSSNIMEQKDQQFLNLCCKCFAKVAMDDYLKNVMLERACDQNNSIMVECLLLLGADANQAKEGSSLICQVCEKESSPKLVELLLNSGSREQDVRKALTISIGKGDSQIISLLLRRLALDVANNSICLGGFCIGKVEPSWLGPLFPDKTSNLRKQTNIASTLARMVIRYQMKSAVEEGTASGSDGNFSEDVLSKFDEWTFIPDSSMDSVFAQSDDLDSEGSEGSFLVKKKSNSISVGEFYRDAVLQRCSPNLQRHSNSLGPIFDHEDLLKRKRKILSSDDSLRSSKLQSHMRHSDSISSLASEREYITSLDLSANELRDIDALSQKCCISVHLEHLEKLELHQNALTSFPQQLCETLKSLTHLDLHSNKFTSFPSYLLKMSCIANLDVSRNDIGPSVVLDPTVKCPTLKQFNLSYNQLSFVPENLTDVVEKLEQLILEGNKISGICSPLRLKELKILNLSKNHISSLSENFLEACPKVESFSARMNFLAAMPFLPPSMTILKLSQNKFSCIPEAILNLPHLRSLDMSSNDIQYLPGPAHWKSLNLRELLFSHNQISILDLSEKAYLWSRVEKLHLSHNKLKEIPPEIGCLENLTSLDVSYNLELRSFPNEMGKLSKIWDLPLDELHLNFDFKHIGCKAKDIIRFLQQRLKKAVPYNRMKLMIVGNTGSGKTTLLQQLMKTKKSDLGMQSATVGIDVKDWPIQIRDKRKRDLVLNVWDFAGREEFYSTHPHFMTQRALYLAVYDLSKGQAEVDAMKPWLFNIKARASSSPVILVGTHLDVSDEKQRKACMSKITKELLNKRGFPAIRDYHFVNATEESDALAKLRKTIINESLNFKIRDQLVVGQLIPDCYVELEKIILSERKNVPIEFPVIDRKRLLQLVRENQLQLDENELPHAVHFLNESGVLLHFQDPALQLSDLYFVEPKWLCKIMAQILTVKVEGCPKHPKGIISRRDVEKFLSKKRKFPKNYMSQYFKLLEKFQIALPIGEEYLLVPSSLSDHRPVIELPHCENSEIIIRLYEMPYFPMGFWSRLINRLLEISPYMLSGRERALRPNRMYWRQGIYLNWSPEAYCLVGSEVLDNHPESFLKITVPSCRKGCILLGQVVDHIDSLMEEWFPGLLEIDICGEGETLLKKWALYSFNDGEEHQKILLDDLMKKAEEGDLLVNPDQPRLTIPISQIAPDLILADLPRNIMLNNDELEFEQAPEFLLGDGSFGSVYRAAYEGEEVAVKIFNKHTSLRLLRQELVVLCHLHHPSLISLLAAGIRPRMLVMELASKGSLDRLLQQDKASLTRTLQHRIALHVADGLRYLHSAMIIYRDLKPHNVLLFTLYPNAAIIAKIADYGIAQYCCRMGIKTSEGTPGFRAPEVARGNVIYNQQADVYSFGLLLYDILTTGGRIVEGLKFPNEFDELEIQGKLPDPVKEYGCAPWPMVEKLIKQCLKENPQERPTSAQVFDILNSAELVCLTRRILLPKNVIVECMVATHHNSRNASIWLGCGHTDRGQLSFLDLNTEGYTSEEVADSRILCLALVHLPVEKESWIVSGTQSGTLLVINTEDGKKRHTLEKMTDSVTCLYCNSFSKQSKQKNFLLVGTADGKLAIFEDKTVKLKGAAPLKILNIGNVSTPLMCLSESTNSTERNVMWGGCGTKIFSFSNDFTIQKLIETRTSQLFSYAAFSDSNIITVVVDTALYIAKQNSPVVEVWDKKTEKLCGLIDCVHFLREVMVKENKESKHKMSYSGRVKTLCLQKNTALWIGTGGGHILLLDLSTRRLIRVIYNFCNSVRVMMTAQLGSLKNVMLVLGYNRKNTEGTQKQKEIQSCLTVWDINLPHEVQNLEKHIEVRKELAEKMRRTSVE
Text: To determine the activity of compounds against LRRK2 kinase activity in cells, the observed LRRK2 kinase-dependent modulation of LRRK2 Ser 935 phosphorylation (Dzamko et al., 2010, Biochem. J. 430: 405-413) was utilized to develop a quantitative 384 well plate-based immunoassay of LRRK2 Ser935 phosphorylation in the human neuroblastoma cell line SH-SY5Y, engineered to over-express recombinant full length LRRK2 protein.
A BacMam virus expressing full length recombinant LRRK2 was purchased from Invitrogen and amplified by inoculation of SF-9 cells at MOI 0.3 for 4-5 days in Sf-900 III SFM medium supplemented with 3% fetal bovine serum. Infected cell cultures were then centrifuged at 2000 g for 20 minutes, viral supernatant titer determined by anti-gp64 plaque assay and stored at 4° C.
Affinity-purified anti-phospho LRRK2 Ser935 sheep polyclonal antibody (Dzamko et al., 2010, Biochem. J. 430: 405-413) was biotinylated by standard methods (PerkinElmer). Anti-LRRK2 rabbit polyclonal antibody was purchased from Novus Biologicals. AlphaScreen Protein A IgG Kit (including acceptor and donor beads) was purchased from Perkin Elmer.
SH-SY5Y cells were grown in DMEM/F12 medium with 10% dialysed fetal bovine serum and harvested by treatment with 0.5% trypsin-EDTA for 5 minutes at 37° C. followed by centrifugation at 1000 rpm for 4 minutes. The cell pellet was resuspended in Opti-MEM reduced serum media (Invitrogen) at 200,000 cells/ml and mixed with the BacMam LRRK2 virus at M01=50. 50 μl cell solutions were then dispensed to each well of a 384-well plate and incubated at 37° C., 5% CO2 for 24 hours.
Serial dilutions of test compounds were prepared in Opti-MEM reduced serum media (Invitrogen) and 5.6 ul transferred from compound plate to cell assay plate to achieve a top final assay concentration of 10 uM. DMSO was used in certain wells as controls. Cells were incubated at 37° C., 5% CO2 for 60 minutes. The medium was then removed and cells lysed by addition of 20 ul cell lysis buffer (Cell Signaling Technology) and incubation at 4° C. for 20 minutes. 10 ul of antibody/acceptor bead mix [( 1/1000 biotinylated-pS935 LRRK2 antibody, 1/1000 total-LRRK2 antibody, 1/100 Acceptor beads in AlphaScreen detection buffer (25 mM Hepes (pH 7.4), 0.5% Triton X-100, 1 mg/ml Dextran 500 and 0.1% BSA)] was then added to each well and plates incubated for 2 hours at ambient temperature in the dark. 10 μl of donor beads solution (1/33.3 donor beads in AlphaScreen detection buffer) was then added to each well. Following incubation for a further 2 hours at ambient temperature in the dark, plates were read on an EnVision™ plate reader at emission 520-620 nm with excitation 680 nm. Dose response curve data was based on sigmoidal dose-response model.

IC50, > 10 µM:
Cc1cc2cnn(-c3cc(N4CCOCC4)nc(OC(C)C)n3)c2cc1C1CCN(C)CC1(F)F (single isomer, unassigned) [Example E7, 4-(6-(6-(3,3-Difluoro-1-methylpiperidin-4-yl)-5-methyl-1H-indazol-1-yl)-2-isopropoxypyrimidin-4-yl)morpholine]
Cc1cc2cnn(-c3cc(N4CCOCC4)nc(C#N)n3)c2cc1C1CCN(C)CC1(F)F (single isomer, unassigned) [Example E9, 4-(6-(3,3-Difluoro-1-methylpiperidin-4-yl)-5-methyl-1H-indazol-1-yl)-6-morpholinopyrimidine-2-carbonitrile]
CCc1nc(N2CCOCC2)cc(-n2ncc3cc(C)c(C4CCN(C)CC4(F)F)cc32)n1 (single isomer, unassigned) [Example E11, 4-(6-(6-(3,3-Difluoro-1-methylpiperidin-4-yl)-5-methyl-1H-indazol-1-yl)-2-ethylpyrimidin-4-yl)morpholine]
Cc1cc2cnn(-c3cc(N4CCOCC4)nc(OC(C)C)n3)c2cc1C1CCN(C2COC2)CC1(F)F (single isomer, unassigned) [Example E25, 4-(6-(6-(3,3-Difluoro-1-(oxetan-3-yl)piperidin-4-yl)-5-methyl-1H-indazol-1-yl)-2-isopropoxypyrimidin-4-yl)morpholine]
COc1nc(N2CC(O)C2)cc(-n2ncc3cc(C)c([C@@H]4CN(C)C[C@@H]4F)cc32)n1 (single isomer, unassigned) [Example E74, (cis)-1-(6-(6-(4-Fluoro-1-methylpyrrolidin-3-yl)-5-methyl-1H-indazol-1-yl)-2-methoxypyrimidin-4-yl)azetidin-3-ol]
COCCN1CCC(c2ncc3cnn(-c4ccnc(N5CCOCC5)c4)c3n2)C(F)C1 (single isomer, unassigned) [Example E76, (cis)-4-(4-(6-(3-Fluoro-1-(2-methoxyethyl)piperidin-4-yl)-1H-pyrazolo[3,4-d]pyrimidin-1-yl)pyridin-2-yl)morpholine]
COc1nc(N2CC(O)C2)cc(-n2ncc3cc(C)c(C4CCN(C)C(=O)C4)cc32)n1 (single isomer, unassigned) [Example E87, 4-(1-(6-(3-Hydroxyazetidin-1-yl)-2-methoxypyrimidin-4-yl)-5-methyl-1H-indazol-6-yl)-1-methylpiperidin-2-one]
COc1nc(N2CC(O)C2)cc(-n2ncc3cc(C)c(C4(F)CCCN(C)C4)cc32)n1 (single isomer, unassigned) [Example E221, 1-(6-(6-(3-Fluoro-1-methylpiperidin-3-yl)-5-methyl-1H-indazol-1-yl)-2-methoxypyrimidin-4-yl)azetidin-3-ol]
Cc1nc(N2CC(O)C2)cc(-n2ncc3cc(C)c(C4CN(C)CCO4)cc32)n1 (single isomer, unassigned) [Example E228, 1-(2-M ethyl-6-(5-methyl-6-(4-methylmorpholin-2-yl)-1H-indazol-1-yl)pyrimidin-4-yl)azetidin-3-ol]
COc1nc(N2CC(O)C2)cc(-n2ncc3cc(C)c(C4CN(C)CCO4)cc32)n1 (single isomer, unassigned) [Example E229, 1-(2-Methoxy-6-(5-methyl-6-(4-methylmorpholin-2-yl)-1H-indazol-1-yl)pyrimidin-4-yl)azetidin-3-ol]
Cc1nc(N2CCO[C@@H](CO)C2)cc(-n2ncc3cc(C)c(C4CCCOC4)cc32)n1 (single isomer, unassigned) [Example E240]
Cc1nc(N2CCO[C@@H](CO)C2)cc(-n2ncc3cc(C)c(C4CCCCO4)cc32)n1 (single isomer, unassigned) [Example E245]
Cc1nc(N2CCO[C@H](CO)C2)cc(-n2ncc3cc(C)c(C4CCCCO4)cc32)n1 (single isomer, unassigned) [Example E271]
Cc1nc(N2CC(O)C2)cc(-n2ncc3cc(C)c(C4CCCOC4)cc32)n1 (single isomer, unassigned) [Example E272, 1-(2-Methyl-6-(5-methyl-6-(tetrahydro-2H-pyran-3-yl)-1H-indazol-1-yl)pyrimidin-4-yl)azetidin-3-ol]

IC50, ≤ 0.1 µM:
CCOc1nc(N2CCOCC2)cc(-n2ncc3cc(C)c(C4CCN(C5COC5)CC4(F)F)cc32)n1 (single isomer, unassigned) [Example E24, 4-(6-(6-(3,3-Difluoro-1-(oxetan-3-yl)piperidin-4-yl)-5-methyl-1H-indazol-1-yl)-2-ethoxypyrimidin-4-yl)morpholine]
CNC(=O)[C@H]1CN(c2cc(-n3ncc4cc(C)c(C5CCN(CCOC)CC5F)cc43)ncn2)CCO1 (single isomer, unassigned) [Example E29]
CNC(=O)[C@@H]1CN(c2cc(-n3ncc4cc(C)c(C5CCN(CCOC)CC5F)cc43)ncn2)CCO1 (single isomer, unassigned) [Example E30]
CNC(=O)[C@@H]1CN(c2cc(-n3ncc4cc(C)c(C5CCN(C6COC6)CC5F)cc43)ncn2)CCO1 (single isomer, unassigned) [Example E34]
CNC(=O)[C@H]1CN(c2cc(-n3ncc4cc(C)c(C5CCN(C6COC6)CC5F)cc43)ncn2)CCO1 (single isomer, unassigned) [Example E35]
Cc1nc(-n2ncc3cc(C)c(C4CCN(C5COC5)CC4F)cc32)cc([C@H]2C[C@@H](O)C2)n1 (single isomer, unassigned) [Example E44, (cis)-(1s,3s)-3-(6-(6-(3-Fluoro-1-(oxetan-3-yl)piperidin-4-yl)-5-methyl-1H-indazol-1-yl)-2-methylpyrimidin-4-yl)cyclobutanol]
Cc1cc2cnn(-c3cc(N4CC(O)C4)nc(C4CC4)n3)c2cc1[C@H]1CCN(C)C[C@H]1F (single isomer, unassigned) [Example E46, (cis)-1-(2-Cyclopropyl-6-(6-(3-fluoro-1-methylpiperidin-4-yl)-5-methyl-1H-indazol-1-yl)pyrimidin-4-yl)azetidin-3-ol]
Cc1nc(N2CC[C@H](O)C2)cc(-n2ncc3cc(C)c(C4CCN(C)CC4F)cc32)n1 (single isomer, unassigned) [Example E128]
Cc1nc(N2CC(OCCO)C2)cc(-n2ncc3cc(C)c([C@H]4CCN(C)C[C@H]4F)cc32)n1 (single isomer, unassigned) [Example E132, (cis)-2-((1-(6-(6-(3-Fluoro-1-methylpiperidin-4-yl)-5-methyl-1H-indazol-1-yl)-2-methylpyrimidin-4-yl)azetidin-3-yl)oxy)ethanol]
CCN1CC[C@H](c2cc3c(cnn3-c3cc(N4CC(O)C4)nc(C)n3)cc2C)[C@H](F)C1 (single isomer, unassigned) [Example E146, (cis)-1-(6-(6-(1-Ethyl-3-fluoropiperidin-4-yl)-5-methyl-1H-indazol-1-yl)-2-methylpyrimidin-4-yl)azetidin-3-ol]
COc1nc(N2CC(O)C(F)C2)cc(-n2ncc3cc(C)c(C4CCN(C5COC5)CC4)cc32)n1 (single isomer, unassigned) [Example E219, (trans)-4-Fluoro-1-(2-methoxy-6-(5-methyl-6-(1-(oxetan-3-yl)piperidin-4-yl)-1H-indazol-1-yl)pyrimidin-4-yl)pyrrolidin-3-ol]
Cc1nc(N2CC(O)C2)cc(-n2ncc3cc(C)c(C4CCOCC4F)cc32)n1 (single isomer, unassigned) [Example E246, 1-(6-(6-(3-Fluorotetrahydro-2H-pyran-4-yl)-5-methyl-1H-indazol-1-yl)-2-methylpyrimidin-4-yl)azetidin-3-ol]
Cc1nc(N2CCO[C@@H](CO)C2)cc(-n2ncc3cc(C)c(C4CCOCC4F)cc32)n1 (single isomer, unassigned) [Example E250]
Cc1nc(N2CCOC(C(C)O)C2)cc(-n2ncc3cc(C)c(C4CCN(C5COC5)CC4)cc32)n1 (single isomer, unassigned) [Example E268, 1-(4-(2-Methyl-6-(5-methyl-6-(1-(oxetan-3-yl)piperidin-4-yl)-1H-indazol-1-yl)pyrimidin-4-yl)morpholin-2-yl)ethanol]
